Reference: BindingDB's records for doi:10.1016/s0960-894x(00)00456-x (Australian National University, 2001)

Molecular target: Leucine--tRNA ligase (Staphylococcus aureus)
Test: Compound was evaluated for its inhibitory activity against Leucyl-tRNA synthetase from staphylococcus aureus WCUH29

IC50: 186 µM
SMILES: CC[C@H](C)[C@H](N)C(=O)NS(=O)(=O)CC(=O)N[C@]1(C(=O)OC)[C@@H]2CN(C)C=C(C(N)=O)[C@@H]2C[C@@H]1O [(4aR,6S,7R,7aS)-7-[2-((2S,3S)-2-Amino-3-methyl-pentanoylsulfamoyl)-acetylamino]-4-carbamoyl-6-hydroxy-2-methyl-2,4a,5,6,7,7a-hexahydro-1H-[2]pyrindine-7-carboxylic acid methyl ester]
